Reference: patent US20210107874A1, “PHARMACEUTICAL FORMULATION OF CROTONYLAMINOPYRIDINE SALT” (priority 2017, published 2021)
Like-named read-outs stand apart in the source and are kept apart here.

Experiment: PK studies of formulations, plasma by HPLC-MS/MS
Assay type: in vivo
Conditions: Cattle; for AUC / Cmax / Tmax: bovine, plasma; for AUC: read-out: AUC; for Cmax: read-out: Cmax; for Tmax: read-out: Tmax
Procedure: The following formulations were prepared and administered to animals. Blood samples were collected at pre-defined time points and the amount of compound present in plasma at the time of sampling was determined by HPLC-MS/MS. Pharmacokinetic parameters were then calculated: Cmax, Tmax, Tlast, AUC. [table]

[1] = sc, 1 mg/kg, FormR50 (L-tartaric acid, 2-pyrrolidone, NaOH, water), 1 mg/kg
[2] = sc, 1 mg/kg, FormS50 (L-tartaric acid, sodium carboxymethyl cellulose, 2-pyrrolidone, NaOH, water), 1 mg/kg
[3] = sc, 1 mg/kg, pH 4.4, FormO60 (FormO type: L-tartaric acid, NaOH to pH 4.4, water), 1 mg/kg
[4] = sc, 1 mg/kg, pH 4.4, FormT50 (DL-Lactic acid, hydrochloric acid up to pH 4.4, water), 1 mg/kg
[5] = sc, 1.25 mg/kg, Form A50 (NMP, propylene glycol, water), 1.25 mg/kg
[6] = sc, 1.25 mg/kg, Form B62.5 (dimethyl acetamide, propylene glycol, water), 1.25 mg/kg
[7] = sc, 1.25 mg/kg, FormC62.5 (propylene glycol, ethanol, Transcutol P), 1.25 mg/kg
[8] = sc, 1.25 mg/kg, FormD62.5 (PEG 300, ethanol, Transcutol P), 1.25 mg/kg
[9] = sc, 1.25 mg/kg, FormE62.5 (polyethylene glycol 300, ethyl alcohol 96%, water), 1.25 mg/kg
[10] = sc, 1.25 mg/kg, FormF62.5 (polyethylene glycol, 1-octanol, 2-pyrrolidone), 1.25 mg/kg
[11] = sc, 1.25 mg/kg, FormG62.5 (benzyl alcohol, ethyl alcohol 96%, polyethylene glycol 300), 1.25 mg/kg
[12] = sc, 1.25 mg/kg, FormH62.5 (DMA, DMSO, 2-pyrrolidone), 1.25 mg/kg
[13] = sc, 1.25 mg/kg, FormK62.5 (2-pyrrolidone, Transcutol P, ethyl lactate), 1.25 mg/kg
[14] = sc, 1.25 mg/kg, FormL50 (DMA, propylene glycol, water), 1.25 mg/kg
[15] = sc, 1.25 mg/kg, FormP62.5 (L-tartaric acid, 2-pyrrolidone, NaOH, water), 1.25 mg/kg
[16] = sc, 1.25 mg/kg, pH 4.3, FormQ62.5 (L-tartaric acid, sodium carboxymethyl cellulose, NaOH up to pH 4.3, water), 1.25 mg/kg
[17] = sc, 1.25 mg/kg, pH 4.4, Form O62.5 (FormO type: L-tartaric acid, NaOH to pH 4.4, water), 1.25 mg/kg
[18] = sc, 1.25 mg/kg, pH 4.6, FormM62.5 (L-tartaric acid, sodium hydroxide up to pH 4.6, water), 1.25 mg/kg
[19] = FormJ62.5 (DMSO, 2-pyrrolidone, ethyl lactate), SC, 1.25 mg/kg

CCOc1cc(NCCNC(=O)/C=C/C(F)(F)F)ccn1 [Compound 4, (E)-N-[2-[(2-ethoxy-4-pyridyl)amino]ethyl]-4,4,4-trifluoro-but-2-enamide]
Tlast (FormR50 (L-tartaric acid, 2-pyrrolidone, NaOH, water), SC, 1 mg/kg): 6.67 h
Tlast (FormS50 (L-tartaric acid, sodium carboxymethyl cellulose, 2-pyrrolidone, NaOH, water), SC, 1 mg/kg): 8.67 h
Tlast (FormT50 (DL-Lactic acid, hydrochloric acid up to pH 4.4, water), SC, 1 mg/kg): 3.67 h
AUC [1]: 248 ng·h/mL
Cmax [1]: 59.4 ng/mL
Tmax [1]: 60 min
AUC [2]: 339 ng·h/mL
Cmax [2]: 69.3 ng/mL
Tmax [2]: 79.8 min
AUC [3]: 302 ng·h/mL
Cmax [3]: 374 ng/mL
Tmax [3]: 15 min
AUC [4]: 293 ng·h/mL
Cmax [4]: 281 ng/mL
Tmax [4]: 25.2 min
AUC [5]: 204 ng·h/mL
Cmax [5]: 127 ng/mL
Tmax [5]: 26.4 min
AUC [6]: 98.2 ng·h/mL
Cmax [6]: 37.4 ng/mL
Tmax [6]: 30 min
AUC [7]: 130 ng·h/mL
Cmax [7]: 46.4 ng/mL
Tmax [7]: 39.6 min
AUC [8]: 63.2 ng·h/mL
Cmax [8]: 25.4 ng/mL
Tmax [8]: 55.2 min
AUC [9]: 76.4 ng·h/mL
Cmax [9]: 45.7 ng/mL
Tmax [9]: 25.2 min
AUC [10]: 78.5 ng·h/mL
Cmax [10]: 15.2 ng/mL
Tmax [10]: 37.8 min
AUC [11]: 44.8 ng·h/mL
Cmax [11]: 12.5 ng/mL
Tmax [11]: 140 min
AUC [12]: 88.2 ng·h/mL
Cmax [12]: 42.1 ng/mL
Tmax [12]: 40.2 min
AUC [13]: 86 ng·h/mL
Cmax [13]: 29.9 ng/mL
Tmax [13]: 49.8 min
AUC [14]: 59.8 ng·h/mL
Cmax [14]: 28.1 ng/mL
Tmax [14]: 40.2 min
AUC [15]: 322 ng·h/mL
Cmax [15]: 94.2 ng/mL
Tmax [15]: 49.8 min
AUC [16]: 356 ng·h/mL
Cmax [16]: 297 ng/mL
Tmax [16]: 34.8 min
AUC [17]: 358 ng·h/mL
Cmax [17]: 300 ng/mL
Tmax [17]: 30 min
AUC [18]: 336 ng·h/mL
Cmax [18]: 350 ng/mL
Tmax [18]: 15 min
AUC [19]: 99.6 ng·h/mL
Cmax [19]: 37.1 ng/mL
Tmax [19]: 110 min
